# Patent US20050208496A1, “Methods of testing for bronchial asthma or chronic obstructive pulmonary disease” (Genox Research, Inc., priority 2002, published 2005)
# System: respiratory epithelial cells
# Details: lot 1, Day 7, AI method
substance,measurement,value
"IL-13: human IL-13 (Peprotech, Inc.) added to the medium at 50 ng/mL to stimulate respiratory epithelial cells",AI700705 (46658_at) expression fold change,2.4 fold
same,AI809925 (53010_at) expression fold change,3.6 fold
same,AI821796 (57694_at) expression fold change,3 fold
same,AI989346 (52327_s_at) expression fold change,2.7 fold
same,AKAP2 (48035_at) expression fold change,4.4 fold
same,"AKAP10 (36632_at) expression, fold change upon IL-13 stimulation",2 fold
same,"ALOX15 (34636_at) expression, fold change upon IL-13 stimulation",72.3 fold
same,ARHE (35803_at) expression fold change upon IL-13 stimulation,2.3 fold
same,ARL7 (57151_at) expression fold change,3.1 fold
same,AW019985 (48826_s_at) expression fold change,6.9 fold
same,"AXL (38433_at) expression, fold change upon IL-13 stimulation",2.2 fold
same,"BIG2 (34484_at) expression, fold change upon IL-13 stimulation",2.2 fold
same,"BST2 (39061_at) expression, fold change upon IL-13 stimulation",3 fold
same,"C1S (40496_at) expression, fold change upon IL-13 stimulation",4.8 fold
same,C21orf11 (58957_at) expression fold change,2.1 fold
same,CCND3 (1795_g_at) expression fold change upon IL-13 stimulation,2.1 fold
same,CDH6 (57421_at) expression fold change,3.8 fold
same,CDH26 (46916_at) expression fold change,8.6 fold
same,"CH25H (32363_at) expression, fold change upon IL-13 stimulation",15.1 fold
same,"CLDN5 (38995_at) expression, fold change upon IL-13 stimulation",2.9 fold
same,"CTSC (133_at) expression, fold change upon IL-13 stimulation",2.8 fold
same,CXCL16 (44095_at) expression fold change,4 fold
same,"DBCCR1 (40292_at) expression, fold change upon IL-13 stimulation",3.1 fold
same,"DD96 (31610_at) expression, fold change upon IL-13 stimulation",3.3 fold
same,"DDIT3 (39420_at) expression, fold change upon IL-13 stimulation",5.2 fold
same,"DKFZP564O0823 (41402_at) expression, fold change upon IL-13 stimulation",3.9 fold
same,DKFZP566J091 (57197_at) expression fold change,11.3 fold
same,DNAJA1 (276_at) expression fold change upon IL-13 stimulation,2.5 fold
same,DPP4 (34823_at) expression fold change upon IL-13 stimulation,3.2 fold
same,DPYD (38220_at) expression fold change upon IL-13 stimulation,2.5 fold
same,EMILIN-2 (51628_at) expression fold change,3.1 fold
same,FADS3 (43394_s_at) expression fold change,4.5 fold
same,FETUB (32620_at) expression fold change,8.4 fold
same,FETUB (33101_g_at) expression fold change,9 fold
same,FLJ10261 (43366_at) expression fold change,10.6 fold
same,FLJ10261 (43963_at) expression fold change,8.7 fold
same,FLJ14281 (50209_at) expression fold change,2.5 fold
same,FLJ20420 (46233_at) expression fold change,2.1 fold
same,FLJ22332 (56959_at) expression fold change,3.4 fold
same,"G1P3 (1358_s_at) expression, fold change upon IL-13 stimulation",2.5 fold
same,GADD45G (39154_at) expression fold change upon IL-13 stimulation,4.3 fold
same,H11 (56474_at) expression fold change,2.3 fold
same,"HLA-F (37420_i_at) expression, fold change upon IL-13 stimulation",3.3 fold
same,"HLA-F (37421_f_at) expression, fold change upon IL-13 stimulation",2.4 fold
same,HLA-F (49203_f_at) expression fold change,3.4 fold
same,"HLALS (34427_g_at) expression, fold change upon IL-13 stimulation",2 fold
same,HS3ST1 (41556_s_at) expression fold change upon IL-13 stimulation,3.8 fold
same,HSD17B2 (38178_at) expression fold change upon IL-13 stimulation,3.1 fold
same,HSPA5 (47634_at) expression fold change,2.7 fold
same,"HUMRTVLH3 (34702_f_at) expression, fold change upon IL-13 stimulation",6.1 fold
same,"Human hbc647 mRNA sequence (34759_at) expression, fold change upon IL-13 stimulation",2.5 fold
same,ICAMt (32640_at) expression fold change upon IL-13 stimulation,3.1 fold
same,"IFI27 (425_at) expression, fold change upon IL-13 stimulation",2.1 fold
same,"IFI30 (39728_at) expression, fold change upon IL-13 stimulation",2.1 fold
same,"IFIT4 (38584_at) expression, fold change upon IL-13 stimulation",4.6 fold
same,IL13RA2 (1016_s_at) expression fold change upon IL-13 stimulation,4.8 fold
same,IRLB (32961_at) expression fold change,2.5 fold
same,"ISG15 (1107_s_at) expression, fold change upon IL-13 stimulation",3 fold
same,"KIAA0469 (37230_at) expression, fold change upon IL-13 stimulation",2 fold
same,"KIAA0537 (33787_at) expression, fold change upon IL-13 stimulation",8.8 fold
same,"KIAA1199 (36070_at) expression, fold change upon IL-13 stimulation",4.3 fold
same,KRT16 (601_s_at) expression fold change,3.6 fold
same,LOC57118 (51085_at) expression fold change,2.2 fold
same,"LOC64116 (40456_at) expression, fold change upon IL-13 stimulation",2.8 fold
same,"LRPAP1 (36194_at) expression, fold change upon IL-13 stimulation",2.2 fold
same,MAT2A (32571_at) expression fold change upon IL-13 stimulation,2.5 fold
same,MDA5 (51920_at) expression fold change,3.8 fold
same,MED6 (35432_at) expression fold change,2.7 fold
same,"MET (1609_g_at) expression, fold change upon IL-13 stimulation",2.6 fold
same,"MET (1812_s_at) expression, fold change upon IL-13 stimulation",5 fold
same,"MET (35684_at) expression, fold change upon IL-13 stimulation",3.4 fold
same,MFHAS1 (50388_at) expression fold change,2.3 fold
same,"MICB (35937_at) expression, fold change upon IL-13 stimulation",3.5 fold
same,"MKP-L (38272_at) expression, fold change upon IL-13 stimulation",2.9 fold
same,"MMP7 (668_s_at) expression, fold change upon IL-13 stimulation",2.8 fold
same,"MP1 (34839_at) expression, fold change upon IL-13 stimulation",2 fold
same,MXI (37014_at) expression fold change,2.9 fold
same,NCF2 (41038_at) expression fold change,4 fold
same,NFIL3 (37544_at) expression fold change,2.5 fold
same,NK4 (39119_s_at) expression fold change upon IL-13 stimulation,6 fold
same,NOS2A (1948_f_at) expression fold change upon IL-13 stimulation,9.4 fold
same,NOS2A (48918_at) expression fold change,8.3 fold
same,"NTRK1 (36805_s_at) expression, fold change upon IL-13 stimulation",8.7 fold
same,"OAF (39695_at) expression, fold change upon IL-13 stimulation",4.3 fold
same,OAS1 (38389_at) expression fold change upon IL-13 stimulation,2.4 fold
same,OSF-2 (1451_s_at) expression fold change upon IL-13 stimulation,25.4 fold
same,"PAK2 (1560_g_at) expression, fold change upon IL-13 stimulation",2.4 fold
same,"PITPNB (353_at) expression, fold change upon IL-13 stimulation",2.8 fold
same,"PITPNB (35017_f_at) expression, fold change upon IL-13 stimulation",2.3 fold
same,"PKD2 (38120_at) expression, fold change upon IL-13 stimulation",2.7 fold
same,PLS1 (39951_at) expression fold change,5.4 fold
same,PMCH (32005_at) expression fold change,11 fold
same,PSMB9 (38287_at) expression fold change upon IL-13 stimulation,2.6 fold
same,PVRL2 (50320_g_at) expression fold change,2.2 fold
same,RASGRP1 (33291_at) expression fold change,2.8 fold
same,RIG-1 (59215_at) expression fold change,2.8 fold
same,"SECTM1 (41045_at) expression, fold change upon IL-13 stimulation",4.4 fold
same,SERPINB2 (37185_at) expression fold change,5.3 fold
same,SERPINB4 (1549_s_at) expression fold change,7.8 fold
same,SERPINB6 (34789_at) expression fold change,2 fold
same,SIAT1 (41352_at) expression fold change upon IL-13 stimulation,8.7 fold
same,"SLC26A4, pendrin (36376_at) expression fold change",20.1 fold
same,SPHK1 (51923_at) expression fold change,2.1 fold
same,"SSI-1 (41592_at) expression, fold change upon IL-13 stimulation",6.1 fold
same,STAT1 (32859_at) expression fold change,2.1 fold
same,TGFB2 (1262_s_at) expression fold change upon IL-13 stimulation,3.2 fold
